Reference: patent US10314813B2, “Antimicrobial compositions for Clostridium difficile” (University of Central Florida Research Foundation, Inc., priority 2017, dated 2019)

What was measured:
[1] = test system: Clostridium difficile 630; test: MIC broth dilution per CLSI M11-A8, modified Brucella broth; type: cell-based; settings: strain 630; Brucella broth mix + yeast, no blood/hemin; n = 12
Procedure: (§1) MIC experiments for Puupehenone were carried out in accordance with CLSI M11-A8 for broth dilutions. The levels of antimicrobial were achieved via serial dilution and listed as follows; 32 ug/mL, 16 ug/mL. 8 ug/mL, 4 ug/mL, 2 ug/mL, 1 ug/mL, 0.5 ug/mL, 0.25 ug/mL, 0.125 ug/mL, 0.0625 ug/mL/. Metranidazole was used a positive control. The only deviation from the CLSI was a modification to the media. […] This was noted due to comparisons with previous BHIS experiments. Thus, the media was modified to resemble the BHIS media, with only Brucella broth mix (28 g/L) and yeast (5 g/L). The reason for the decreased efficacy of the drug when in blood based media is still being investigated. The MICs against different C. difficile strains (ATCC9689, NAP1027, and 630 were determined for both Puupehone and Matranidazole See Table 1.

[2] = test system: Clostridium difficile ATCC 9689; test: as above; type: cell-based; settings: strain ATCC 9689; Brucella broth mix + yeast, no blood/hemin; n = 12
Procedure: as §1

[3] = test system: Clostridium difficile NAP1027; test: as above; type: cell-based; settings: strain NAP1027; Brucella broth mix + yeast, no blood/hemin; n = 12
Procedure: as §1

[4] = test system: C. difficile strain VPI 10463 or strain ATCC 9689; test: 96-well growth inhibition test in BHIS media, optical density readout; type: cell-based, Clostridium difficile; settings: puupehenone in MeOH, 40 μL-well, Trial 1 (0 μL-well 0.0816)
Procedure: Tests were performed in a Coy anaerobic chamber (Coy Labs Grass Lake, Mich.). The compound Puupehenone was dissolved in either methanol or DMSO for testing. Using a 96-well plate, 200 μL of BHIS media was added to 12 wells. One was the control (BHIS media alone). The sequential nine wells have increments of 5 μL of puupehenone. The remaining two wells have no puupehenone but one has 20 μL and another has 40 μL of methanol. These last wells are a separate test to determine if methanol influences the growth of C. difficile. Then 10 μL of C. difficile strain VPI 10463 or strain ATCC 9689 was added to each well except for the control. Trials with DMSO were performed in increments of 2 μL of puupehenone. Effects of puupehenone on C. difficile were tested based on optical density (e.g. OD500 nm, OD600 nm or OD630 nm, inter alia) using an optical reader as is standard in the art. Results

| Compound | MIC [1] | MIC [2] | MIC [3] | optical density (growth of C. difficile) [4] |
| --- | --- | --- | --- | --- |
| Cc1ncc([N+](=O)[O-])n1CCO [Metranidazole, reference compound] | 0.5 µg/mL | 0.25 µg/mL | 0.25 µg/mL | – |
| CC1(C)CCC[C@]2(C)[C@H]3C=C4C=C(O)C(=O)C=C4O[C@@]3(C)CC[C@@H]12 [Puupehenone, puupehenone] | 8 µg/mL | 4 µg/mL | 8 µg/mL | 0.0742 |
